In data set [1] the target is T1, Protein kinase C iota type (Homo sapiens, UniProt P41743).
T1 sequence (P41743 whole entry): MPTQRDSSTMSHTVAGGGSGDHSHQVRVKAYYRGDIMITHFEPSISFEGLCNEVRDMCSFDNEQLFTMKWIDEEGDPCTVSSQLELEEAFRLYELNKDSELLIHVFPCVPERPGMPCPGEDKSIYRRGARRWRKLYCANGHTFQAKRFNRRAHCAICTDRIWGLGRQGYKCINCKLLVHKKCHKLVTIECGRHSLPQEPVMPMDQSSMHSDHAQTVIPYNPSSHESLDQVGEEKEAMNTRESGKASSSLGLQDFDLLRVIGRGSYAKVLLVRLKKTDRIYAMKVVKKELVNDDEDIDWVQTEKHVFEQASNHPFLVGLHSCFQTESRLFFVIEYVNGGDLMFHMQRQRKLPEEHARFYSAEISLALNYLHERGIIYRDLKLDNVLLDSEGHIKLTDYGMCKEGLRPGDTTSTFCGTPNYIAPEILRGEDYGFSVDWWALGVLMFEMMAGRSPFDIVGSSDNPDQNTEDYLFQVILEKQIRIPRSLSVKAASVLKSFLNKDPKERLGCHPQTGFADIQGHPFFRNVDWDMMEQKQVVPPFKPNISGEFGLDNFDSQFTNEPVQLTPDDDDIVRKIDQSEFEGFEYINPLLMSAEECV
The data set can be described thus: Inhibition of full-length N-terminal GST-fused human PKC-iota expressed in baculovirus expression system using (5FAM) RFARKGSLRQKNV as substrate after 60 mins by caliper assay.

Data set [2] has as its target Protein kinase C alpha type (Homo sapiens, UniProt P17252). The data set can be described thus: Inhibition of full-length N-terminal GST-fused human PKC-alpha expressed in baculovirus expression system using (5FAM) RFARKGSLRQKNV as substrate after 60 mins by caliper assay.
Data set [3] has as its target T2, Protein kinase C epsilon type (Homo sapiens, UniProt Q02156).
T2 sequence (Q02156 whole entry): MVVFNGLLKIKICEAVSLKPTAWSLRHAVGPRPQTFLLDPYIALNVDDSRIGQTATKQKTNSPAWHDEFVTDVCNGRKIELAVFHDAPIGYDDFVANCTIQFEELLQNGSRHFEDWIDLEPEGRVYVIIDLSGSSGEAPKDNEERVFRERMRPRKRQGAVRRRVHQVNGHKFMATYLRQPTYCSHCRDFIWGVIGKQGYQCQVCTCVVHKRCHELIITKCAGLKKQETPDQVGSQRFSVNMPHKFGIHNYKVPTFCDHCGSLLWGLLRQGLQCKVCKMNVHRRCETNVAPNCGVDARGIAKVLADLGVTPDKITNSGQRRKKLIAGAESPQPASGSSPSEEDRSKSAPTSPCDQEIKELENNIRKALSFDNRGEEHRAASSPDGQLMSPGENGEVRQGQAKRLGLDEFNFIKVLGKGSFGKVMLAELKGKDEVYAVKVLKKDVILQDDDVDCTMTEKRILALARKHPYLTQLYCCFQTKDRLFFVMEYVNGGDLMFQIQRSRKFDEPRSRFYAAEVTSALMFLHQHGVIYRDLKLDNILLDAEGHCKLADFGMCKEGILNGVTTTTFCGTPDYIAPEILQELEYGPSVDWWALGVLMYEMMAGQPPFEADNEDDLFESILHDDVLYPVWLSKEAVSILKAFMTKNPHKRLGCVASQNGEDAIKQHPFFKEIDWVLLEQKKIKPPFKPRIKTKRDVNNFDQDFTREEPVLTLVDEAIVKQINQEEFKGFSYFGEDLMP
Put plainly: Inhibition of full-length N-terminal GST-fused human PKC-epsilon expressed in baculovirus expression system using (5FAM) RFARKGSLRQKNV as substrate after 60 mins by caliper assay.

For the next data set, the system named is Huh-7. Put plainly: Antiproliferative activity against human HuH7 cells after 72 hrs by CellTiter-Glo assay. The class given is functional. The conditions noted are these: Huh-7, 72 h. A general note: Cellular ATP, detected with luciferase, serves as a proxy for viable cell number.
For the next data set, the system named is HCCLM3. Put plainly: Antiproliferative activity against human HCCLM3 cells after 72 hrs by CellTiter-Glo assay. The class given is functional. The conditions noted are these: HCCLM3, 72 h.
A short description of data set [4]: Solubility of the compound at pH 4. The conditions noted are these: buffer. Format: physicochemical.
Data set [5] can be described thus: Solubility of the compound at pH 7.4. Particulars: buffer. Format: physicochemical.
A further data set addresses Cytochrome P450 2D6 (Homo sapiens, UniProt P10635). Put plainly: Inhibition of CYP2D6 (unknown origin). The class given is ADME.
A short description of data set [6]: Clearance in mouse liver microsomes. The class given is ADME, microsome. Particulars: read-out: CLH. On the technique in general: Liver microsomes are vesicles of endoplasmic reticulum, rich in cytochrome P450 enzymes.
Data set [7] in a line: Clearance in human liver microsomes. The class given is ADME, microsome. The conditions noted are these: read-out: CLH.
Data set [8] can be described thus: Half life in mouse liver microsomes. The class given is ADME, microsome.
Data set [9] is described as follows: Half life in human liver microsomes. The class given is ADME, microsome.
Data set [10] can be described thus: Permeability across apical to basolateral side in human Caco2 cells. The class given is ADME, cell-based. Particulars: Caco-2, read-out: permeability. Background: Caco-2 monolayers are a common model of the intestinal barrier.

SMILES strings stand for the structures. In brackets after ≈: the same amount, converted by molar mass.

In general, IC50 refers to the concentration that inhibits the measured activity by half. Low values mean inhibition by little substance, high ones a need for much substance. What is called GI50 is the concentration that inhibits growth by half. Higher therefore signals lower sensitivity of the cells. As a reminder, the solubility is the concentration that dissolves in the medium under given conditions. Broadly, the half-life is how long it takes for the measured level to halve.

Cytochrome P450 2D6, sequence (P10635 whole entry): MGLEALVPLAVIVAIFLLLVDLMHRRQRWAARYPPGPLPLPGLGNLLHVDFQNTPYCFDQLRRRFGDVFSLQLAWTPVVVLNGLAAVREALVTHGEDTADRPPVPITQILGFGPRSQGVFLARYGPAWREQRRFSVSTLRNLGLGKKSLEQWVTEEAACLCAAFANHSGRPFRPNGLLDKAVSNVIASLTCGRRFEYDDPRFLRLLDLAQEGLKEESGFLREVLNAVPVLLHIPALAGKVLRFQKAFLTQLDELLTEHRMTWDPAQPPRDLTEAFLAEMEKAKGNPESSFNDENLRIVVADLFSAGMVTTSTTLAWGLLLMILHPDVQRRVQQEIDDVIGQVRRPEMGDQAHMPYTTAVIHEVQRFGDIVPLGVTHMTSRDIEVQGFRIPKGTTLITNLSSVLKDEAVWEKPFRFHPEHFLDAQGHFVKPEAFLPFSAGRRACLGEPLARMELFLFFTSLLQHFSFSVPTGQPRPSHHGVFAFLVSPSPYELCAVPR

Take `Nc1ccc2[nH]cnc2c1`: in data set [1], it took 728 µM to reach half-maximal inhibition (IC50).

Regarding `O=C1CCCc2cc(O)ccc21`, in data set [1], the IC50 turned out to be 1680 µM.

Consider `COc1cc2c(cc1-c1cnn3ccc(-c4ccnc5[nH]ccc45)cc13)CNCC2`, for which the IC50 in [2] worked out at 0.071 µM.

The molecule `COc1ccc2c(c1)C(=O)N(c1cnn3ccc(-c4ccnc5[nH]ccc45)cc13)C2` displayed an IC50 in data set [2] of 2.5 µM.

`Clc1ccnc2[nH]ccc12` showed a half-maximal inhibitory concentration (IC50) in data set [1] of 1300 µM.

`COc1cc2c(cc1-c1cnc3ccc(-c4ccnc5[nH]ccc45)cn13)CNC2` gave an IC50 in data set [2] of 0.34 µM.

In turn, `COc1cc2c(cc1-c1cnn3ccc(-c4ccnc5[nH]ccc45)cc13)CN(C)C2` gave an IC50 in data set [2] of 0.14 µM.

On to `Brc1ccnc2[nH]ccc12`, for which, in [1], the IC50 turned out to be 615 µM.

Turning to `COc1cc2c(cc1-n1cnc3cnc(-c4ccnc5[nH]ccc45)cc31)CNC2`, the IC50 in [2] came out at 0.25 µM.

In data set [2], `COc1cc2c(cc1-c1cnn3ccc(-c4ccnc5[nH]ccc45)cc13)CNC(C)C2` (centres undefined) returned a half-maximal inhibitory concentration (IC50) of 0.064 µM.

On to `COc1cc2c(cc1-c1cnn3ccc(-c4ccnc5[nH]ccc45)nc13)CNC2`, for which it took 0.35 µM to reach half-maximal inhibition in data set [2] (IC50).

For the molecule `COc1cc2c(cc1-c1cnn3ccc(-c4ccnc5[nH]ccc45)cc13)CNC(CF)C2` (centres undefined), the values for the concentration for half-maximal inhibition (IC50) in data set [1], in [2] and in data set [3] were 0.0027 µM, 0.045 µM and 0.045 µM, respectively. For the same molecule, the figures for the GI50 in the data set on Huh-7 and with HCCLM3 were 3.3 µM and 6.6 µM, respectively.

The molecule `COc1cc2c(cc1-n1cnc3ccc(-c4ccnc5[nH]ccc45)nc31)CNC2` had an IC50 in [2] of 0.43 µM.

For the molecule `COc1cc2c(cc1-n1cnc3ccc(-c4ccnc5[nH]ccc45)cc31)CNC2`, the concentration for half-maximal inhibition (IC50) worked out at 0.048 µM in [1], 0.28 µM in [2], 0.56 µM in data set [3] and 24 µM against Cytochrome P450 2D6. Moreover, the GI50 in the data set with Huh-7 came out at 9 µM. Moreover, the results for the solubility in data set [4] and in data set [5] were 790 µg/mL (≈ 2070 µM) and 1.3 µg/mL (≈ 3.41 µM), respectively. Also, the microsomal CLint amounted to 21.5 µL/min/mg in data set [6] and 10 µL/min/mg in data set [7]. The results for the half-life in [8] and in [9] were 32 min and 67 min, respectively. Further, in data set [10], the Papp A→B was 0.57 ×10⁻⁶ cm/s.

The molecule `COc1cc2c(cc1-c1cnc3ccc(-c4ccnc5[nH]ccc45)nn13)CNC2` showed an IC50 in data set [2] of 1.4 µM.

In the case of `COc1cc2c(cc1-c1cnn3ccc(-c4ccnc5[nH]ccc45)cc13)CN(C(C)=O)C2`, the IC50 in [2] worked out at 0.38 µM.

In turn, `Cn1ccc2cc(N)ccc21` had an IC50 in data set [1] of 1310 µM.

`COc1cc2c(cc1-c1cnn3ccc(-c4ccnc5[nH]ccc45)cc13)CNC2`: the IC50 in [2] is 0.11 µM.

`O=c1[nH]ncc2ccccc12` [PHTHALAZINONE] had an IC50 in [1] of 589 µM.
